# Measured values taken from patent US7651978B2, “Selective herbicides based on a substituted phenylsulphonylaminocarbonyl-triazolinone” (Arysta LifeScience North America, LLC, priority 1998, dated 2010).
# Assays:
# [1] = test system: Alopecurus; assay: Pre-emergence test/greenhouse; assay type: in vivo; settings: 504 h, 30 g of ai./ha, after three weeks, read-out: degree of damage, Alopecurus
# Method: (§1) Pre-Emergence Test/Greenhouse Solvent: 5 parts by weight of acetone Emulsifier: 1 part by weight of alkylaryl polyglycol ether To produce a suitable preparation of active compound, 1 part by weight of active compound is mixed with the stated amount of solvent, the stated amount of emulsifier is added and the concentrate is diluted with water to the desired concentration. Seeds of the test plants are sown in normal soil. After about 24 hours, the soil is sprayed with the preparation of active compound such that the particular amount of active compound desired is applied per unit area. The concentration of the spray liquor is chosen so that the particular amount of active compound desired is applied in 500 ml of water per hectare. After three weeks, the degree of damage to the plants is assessed in % damage in comparison to the development of the untreated control. The figures denote: • 0%=no effect (like untreated control) • 100%=total destruction
# [2] = test system: Avena; assay: Pre-emergence test/greenhouse; assay type: in vivo; settings: 504 h, 30 g of ai./ha, after three weeks, read-out: degree of damage, Avena
# Method: as §1
# [3] = test system: Bromus; assay: Pre-emergence test/greenhouse; assay type: in vivo; settings: 30 g of ai./ha, after three weeks
# Method: as §1
# [4] = test system: Digitaria; assay: Pre-emergence test/greenhouse; assay type: in vivo; settings: 30 g of ai./ha, after three weeks
# Method: as §1
# [5] = test system: Echinochloa; assay: Pre-emergence test/greenhouse; assay type: in vivo; settings: 30 g of ai./ha, after three weeks
# Method: as §1
# [6] = test system: Matricaria; assay: Pre-emergence test/greenhouse; assay type: in vivo; settings: 30 g of ai./ha, after three weeks
# Method: as §1
# [7] = test system: Polygonum; assay: Pre-emergence test/greenhouse; assay type: in vivo; settings: 30 g of ai./ha, after three weeks
# Method: as §1
# [8] = test system: Setaria; assay: Pre-emergence test/greenhouse; assay type: in vivo; settings: 30 g of ai./ha, after three weeks
# Method: as §1
# [9] = test system: Wheat; assay: Pre-emergence test/greenhouse; assay type: in vivo; settings: pre-emergence; for degree of damage, Wheat: 30 g of ai./ha, after three weeks, 0%=no effect, 100%=total destruction
# Method: as §1
# [10] = test system: Agropyron; assay: Post-emergence test/greenhouse; assay type: in vivo; settings: 60 g ai./ha, after three weeks
# Method: (§2) Post-Emergence Test/Greenhouse [table] To produce a suitable preparation of active compound, 1 part by weight of active compound is mixed with the stated amount of solvent, the stated amount of emulsifier is added and the concentrate is diluted with water to the desired concentration. Test plants which have a height of 5-15 cm are sprayed with the preparation of active compound such that the particular amounts of active compound desired are applied per unit area. The concentration of the spray liquor is chosen so that the particular amounts of active compound desired are applied in 500 ml of water/ha. After three weeks, the degree of damage to the plants is assessed in % damage in comparison to the development of the untreated control. The figures denote: • 0%=no effect (like untreated control) • 100%=total destruction
# [11] = test system: Alopecurus; assay: Post-emergence test/greenhouse; assay type: in vivo; settings: 504 h, 60 g ai./ha, after three weeks, read-out: degree of damage, Alopecurus
# Method: as §2
# [12] = test system: Avena; assay: Post-emergence test/greenhouse; assay type: in vivo; settings: 60 g ai./ha, after three weeks
# Method: as §2
# [13] = test system: Bromus; assay: Post-emergence test/greenhouse; assay type: in vivo; settings: 60 g ai./ha, after three weeks
# Method: as §2
# [14] = test system: Lolium; assay: Post-emergence test/greenhouse; assay type: in vivo; settings: 60 g ai./ha, after three weeks
# Method: as §2
# [15] = test system: Setaria; assay: Post-emergence test/greenhouse; assay type: in vivo; settings: 60 g ai./ha, after three weeks
# Method: as §2
# [16] = test system: Wheat; assay: Post-emergence test/greenhouse; assay type: in vivo; settings: post-emergence, 60 g ai./ha, after three weeks; 0%=no effect, 100%=total destruction
# Method: as §2
# [17] = test system: weeds, such as Alopecurus, Avena, Bromus, Digitaria, Echinochloa, Matricaria, Polygonum and Setaria; assay: Pre-emergence test/greenhouse, summary over weeds; assay type: in vivo; settings: cf. Table A1
# Method: Pre-Emergence Test/Greenhouse Solvent: 5 parts by weight of acetone Emulsifier: 1 part by weight of alkylaryl polyglycol ether To produce a suitable preparation of active compound, 1 part by weight of active compound is mixed with the stated amount of solvent, the stated amount of emulsifier is added and the concentrate is diluted with water to the desired concentration. Seeds of the test plants are sown in normal soil. After about 24 hours, the soil is sprayed with the preparation of active compound such that the particular amount of active compound desired is applied per unit area. The concentration of the spray liquor is chosen so that the particular amount of active compound desired is applied in 500 ml of water per hectare. After three weeks, the degree of damage to the plants is assessed in % damage in comparison to the development of the untreated control. […] Table A1). The considerable superiority of (I)-Na-salt over the comparative compound (G) is shown in Table A2 [“ai.”=“active ingredient”].
# [18] = test system: weeds, such as Agropyron, Alopecurus, Avena, Bromus, Lolium, Setaria and Veronica; assay: Post-emergence test/greenhouse, summary over weeds; assay type: in vivo; settings: cf. Table B1
# Method: as §2, with “[…] A considerable superiority of (I)-Na-salt (at 125 g/ha) over the comparative compounds (G) and (H) (in each case at 250 g/ha!) is shown in Table B2.” for “The figures denote: • 0%=no effect (like untreated control) • 100%=total destruction”
# [19] = test system: Veronica; assay: Post-emergence test/greenhouse; assay type: in vivo; settings: 60 g ai./ha, after three weeks
# Method: as §2
# [20] = test system: Avena fatua; assay: Post-emergence tests/outdoors (Example C, Canada); assay type: in vivo; settings: outdoors, 70 WP, 6 tests
# Method: (§3) Post-Emergence Tests/Outdoors In addition to the comparative compounds (B) and (D), the sodium salt of the compound of the formula (I) was tested under outdoor conditions in the main cultivation areas of summer wheat in Canada against economically important weeds. The small-plot experiments were carried out on cultivated land under agricultural use. Areas with particularly extensive weed growth were chosen preferably. The active compounds were applied across the area by the spray method, with an average droplet size. To produce a useful preparation of active compound, the active compounds were formulated as 70 WP (70% w/w water-dispersible powder) and applied with customary amounts of water. Wetting of the plants was improved by addition of a surface-active substance (SAS) in the concentrations recommended by the respective manufacturer. To assess the crop compatibility, from 1 to 8 weeks after the treatment, plant growth inhibitions or […] of the leaf area were assessed in % damage in comparison to the development of the untreated control. At different intervals after the treatment, the herbicidal activity was assessed as % reduction in comparison to the untreated control, based on the weed development. The figures denote: • 0%=no damage of the crops or no herbicidal effect, • 100%=total destruction of the crops or the weeds.
# [21] = test system: Fallopia convolvulus; assay: Post-emergence tests/outdoors (Example C, Canada); assay type: in vivo; settings: outdoors, 70 WP, 5 tests
# Method: as §3
# [22] = test system: Setaria viridis; assay: Post-emergence tests/outdoors (Example C, Canada); assay type: in vivo; settings: outdoors, 70 WP, 5 tests
# Method: as §3
# [23] = test system: Sinapis arvensis; assay: Post-emergence tests/outdoors (Example C, Canada); assay type: in vivo; settings: outdoors, 70 WP, 5 tests
# Method: as §3
# [24] = test system: Thlaspi arvense; assay: Post-emergence tests/outdoors (Example C, Canada); assay type: in vivo; settings: outdoors, 70 WP, 3 tests
# Method: as §3
# [25] = test system: wheat; assay: Post-emergence tests/outdoors (Example C, Canada), crop damage; assay type: in vivo, summer wheat; settings: outdoors, 70 WP, 9 tests, 1 to 8 weeks after treatment
# Method: as §3
# [26] = 30 g of a.i./ha + SAS (Canplus 411)
# [27] = 15 g of a.i./ha + SAS (Canplus 411)
SMILES,pest or weed control at 30 g/ha [1] [%],pest or weed control at 30 g/ha [2] [%],"degree of damage, Bromus [3] [%]","degree of damage, Digitaria [4] [%]","degree of damage, Echinochloa [5] [%]","degree of damage, Matricaria [6] [%]","degree of damage, Polygonum [7] [%]","degree of damage, Setaria [8] [%]","degree of damage, Wheat [9] [%]","degree of damage, Agropyron [10] [%]",pest or weed control at 60 g/ha [11] [%],"degree of damage, Avena [12] [%]","degree of damage, Bromus [13] [%]","degree of damage, Lolium [14] [%]","degree of damage, Setaria [15] [%]","degree of damage, Wheat [16] [%]","herbicidal activity (in words, compared with (I)-Na-salt) [17]","herbicidal activity (in words, compared with (I)-Na-salt) [18]","degree of damage, Veronica [19] [%]",also measured
"CCn1c(OC)nn(C(=O)NS(=O)(=O)c2ccccc2OC(F)(F)F)c1=O [(A), 2-(2-Trifluoromethoxy-phenylsulphonylaminocarbonyl)-4-ethyl-5-methoxy-2,4-dihydro-3H-1,2,4-triazol-3-one]",20,0,40,0,50,0,0,60,0,0,0,0,40,0,40,0,considerably weaker herbicidal activity,considerably weaker herbicidal activity,–,–
"COn1c(C)nn(C(=O)NS(=O)(=O)c2ccccc2OC(F)(F)F)c1=O [(C), 2-(2-Trifluoromethoxy-phenylsulphonylaminocarbonyl)-4-methoxy-5-methyl-2,4-dihydro-3H-1,2,4-triazol-3-one]",0,0,0,0,0,0,0,0,0,0,0,0,0,0,0,0,considerably weaker herbicidal activity,considerably weaker herbicidal activity,0,–
"COc1nn(C(=O)NS(=O)(=O)c2ccccc2OC(F)F)c(=O)n1C [(E), 2-(2-Difluoromethoxy-phenylsulphonylaminocarbonyl)-4-methyl-5-methoxy-2,4-dihydro-3H-1,2,4-triazol-3-one]",50,30,0,40,30,0,60,80,0,60,20,70,0,20,–,0,considerably weaker herbicidal activity,considerably weaker herbicidal activity,30,–
"CCOc1nn(C(=O)NS(=O)(=O)c2ccccc2OC(F)(F)F)c(=O)n1C [(B), 2-(2-Trifluoromethoxy-phenylsulphonylaminocarbonyl)-4-methyl-5-ethoxy-2,4-dihydro-3H-1,2,4-triazol-3-one]",70,80,–,–,–,–,80,–,50,–,40,–,–,70,–,0,–,considerably weaker herbicidal activity,70,"compatibility with crop plants (wheat), in words ([9]; cf. Table A1): not compatible with wheat; herbicidal effect (%), Avena fatua [20, 26]: 69%; herbicidal effect (%), Fallopia convolvulus [21, 26]: 71%; herbicidal effect (%), Setaria viridis [22, 26]: 95%; herbicidal effect (%), Sinapis arvensis [23, 26]: 97%; herbicidal effect (%), Thlaspi arvense [24, 26]: 97%; Crop damage (wheat) [25, 26]: 5%"
"COc1nn(C(=O)NS(=O)(=O)c2ccccc2C(F)(F)F)c(=O)n1C [(D), 2-(2-Trifluoromethyl-phenylsulphonylaminocarbonyl)-4-methyl-5-methoxy-2,4-dihydro-3H-1,2,4-triazol-3-one]",70,50,–,80,–,30,70,–,0,–,–,–,–,–,–,0,considerably weaker herbicidal activity,considerably weaker herbicidal activity,0,"herbicidal effect (%), Avena fatua [20, 27]: 65%; herbicidal effect (%), Fallopia convolvulus [21, 27]: 70%; herbicidal effect (%), Setaria viridis [22, 27]: 81%; herbicidal effect (%), Sinapis arvensis [23, 27]: 95%; herbicidal effect (%), Thlaspi arvense [24, 27]: 95%; Crop damage (wheat) [25, 27]: 12%"
